The results in this text go back to US9422244B2, “Synthesis of substituted pyrazoline carboxamidine derivatives” (Abbvie Bahamas Ltd., priority 2010, dated 2016).

Compound `CCN/C(=N\S(=O)(=O)c1ccccc1Cl)N1CCC(CC)=N1` displayed a melting point of 87 to 88 °C.

The compound `CCNC(=S)N1CC2(C=N1)CCCC2` [compound 1, 2,3-Diazaspiro[4.4]non-3-ene-2-carbothioic acid ethylamide] displayed a melting point of 120 to 121 °C.

For the compound `CCN/C(=N\S(=O)(=O)c1ccc(N)cc1)N1CC2(C=N1)CCCC2` [compound 4, 4-Amino-N-[(2,3-diaza-spiro[4.4]non-3-en-2-yl)-ethylamino-methylene]-benzenesulfonamide], the melting point is 141 to 142 °C.

Regarding `CCNC(=S)N1CC(C)(C)C=N1` [compound 5, 4,4-Dimethyl-4,5-dihydro-pyrazole-1-carbothioic acid ethylamide], the melting point fell in the range of 66 to 67 °C.

With `O=C(Nc1ccccc1Br)C(F)(F)F` [compound 12, N-(2-Bromo-phenyl)-2,2,2-trifluoro-acetamide], the melting point is 58 to 59 °C.

Take `O=C(Nc1ccc(S(=O)(=O)Cl)cc1Br)C(F)(F)F` [compound 13, 3-Bromo-4-(2,2,2-trifluoro-acetylamino)-benzenesulfonyl chloride]: the melting point is 60 to 61 °C.

With `NS(=O)(=O)c1ccc(NC(=O)C(F)(F)F)c(Br)c1` [compound 14, N-(2-Bromo-4-sulfamoyl-phenyl)-2,2,2-trifluoro-acetamide], the melting point was in the range of 171 to 172 °C.

The compound `NS(=O)(=O)c1c(Cl)nc2sccn12` [compound 21, 6-Chloro-imidazo[2,1-b]thiazole-5-sulfonic acid amide] displayed a melting point of 184 to 185 °C.

In turn, `CCN/C(=N\S(=O)(=O)/C=C/c1ccccc1)N1CC(CC)C=N1` (stereo not drawn) [compound 29, Trans-2-phenyl-ethenesulfonic acid ethylamino-(4-ethyl-4,5-dihydro-pyrazol-1-yl)-methylene-amide] had a melting point of 91 to 92 °C.

For `NS(=O)(=O)c1ccc(Cl)s1` [compound 30, 5-Chloro-thiophene-2-sulfonic acid amide], the melting point was in the range of 109 to 110 °C.

On to `CC1(C)C=NN(C(N)=S)C1` [compound 31, 4,4-Dimethyl-4,5-dihydro-pyrazole-1-carbothioic acid amide], for which the melting point is 149 to 150 °C.

For `CC1(C)C=NN(/C(N)=N/S(=O)(=O)c2ccc(Cl)s2)C1` [compound 33, 5-Chloro-thiophene-2-sulfonic acid amino-(4,4-dimethyl-4,5-dihydro-pyrazol-1-yl)-methylene-amide], the melting point is 164 to 165 °C.
